The Ki is a dissociation constant, usually derived from enzyme kinetics or from competition with a known ligand. Broadly, the IC50 is the point on the concentration scale where inhibition reaches its midpoint. Low values mean greater potency, high ones weaker potency.

The values that follow come from patent publication US10206937B2, “Boronic acid derivatives and therapeutic uses thereof” (Qpex Biopharma, Inc., priority 2014, dated 2019).

The target in assay [1] is T1, NDM-1 (Klebsiella pneumoniae, UniProt C7C422). Description: biochemical.
For the next assay, the target named is T2, VIM-1 (Pseudomonas aeruginosa, UniProt A0A0F7KYQ8).
T2 construct: made in house; host or cells: ECM6711 strain carrying pUCP24-VIM-1 plasmid; culture supernatant used unpurified
The experiment in a line: biochemical. The settings on record: cleavage of nitrocefin (200 uM) by VIM-1 supernatant.

The target of assay [2] is T1, NDM-1. Description: Inhibition of purified class B carbapenemase NDM-1 (Ki, imipenem substrate). The format is biochemical. The settings on record: NDM-1, substrate imipenem; read-out: Ki NDM-1, Imipenem.
Assay [3] concerns the target purified class A, C and D enzymes (Enterobacter cloacae, UniProt P05364). The class given is biochemical. The settings on record: purified P99/AmpC of ECL; nitrocefin reporter substrate.
The target in assay [4] is purified class A, C and D enzymes (Escherichia coli, UniProt Q9L5C7). The class given is biochemical. The settings on record: purified CTX-M-14; nitrocefin reporter substrate.
The target of assay [5] is T3, purified class A, C and D enzymes (UniProt Q6XEC0).
T3 construct: rows headed: Ki (OXA-48, NCF); other: purified OXA-48; nitrocefin reporter substrate
The class given is biochemical. The settings on record: read-out: Ki (OXA-48, NCF); purified OXA-48; nitrocefin reporter substrate.

The target in assay [6] is T4, purified class A, C and D enzymes (UniProt Q9F663).
T4 construct: rows headed: Ki (KPC-2, NCF); other: purified KPC-2; nitrocefin reporter substrate
The class given is biochemical. The settings on record: read-out: Ki (KPC-2, NCF); purified KPC-2; nitrocefin reporter substrate.

For assay [7], the target named is T5, purified class A, C and D enzymes (UniProt P0AD64, L31Q/G234S/E235K, species not given).
T5 construct: Ki (SHV-12, NCF); other: purified SHV-12; nitrocefin reporter substrate
T5 sequence (P0AD64 1-286 L31Q/G234S/E235K): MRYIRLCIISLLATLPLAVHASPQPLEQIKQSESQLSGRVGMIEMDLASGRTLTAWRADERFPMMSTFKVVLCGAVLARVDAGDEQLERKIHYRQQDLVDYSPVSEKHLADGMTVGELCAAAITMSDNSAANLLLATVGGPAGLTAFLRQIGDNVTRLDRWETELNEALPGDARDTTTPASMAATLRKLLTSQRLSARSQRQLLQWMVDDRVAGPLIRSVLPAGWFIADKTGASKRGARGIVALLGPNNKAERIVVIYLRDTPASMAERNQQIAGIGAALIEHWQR
The class given is biochemical. The settings on record: read-out: Ki (SHV-12, NCF); purified SHV-12; nitrocefin reporter substrate.

Setting [8] is: cleavage of imipenem (100 uM) by NDM-1, read-out: Ki, Imipenem.

purified class A, C and D enzymes (Escherichia coli, UniProt Q9L5C7), sequence (Q9L5C7 entry or part of it): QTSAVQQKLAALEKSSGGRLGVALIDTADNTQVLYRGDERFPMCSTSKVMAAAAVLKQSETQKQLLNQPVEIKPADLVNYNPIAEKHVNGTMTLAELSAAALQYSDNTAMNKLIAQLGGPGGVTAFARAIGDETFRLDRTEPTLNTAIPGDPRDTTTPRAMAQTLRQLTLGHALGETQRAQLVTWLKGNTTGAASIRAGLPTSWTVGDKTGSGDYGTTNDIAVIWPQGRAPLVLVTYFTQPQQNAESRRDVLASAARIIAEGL
T1 sequence (C7C422 29-270, looked up, species assumed): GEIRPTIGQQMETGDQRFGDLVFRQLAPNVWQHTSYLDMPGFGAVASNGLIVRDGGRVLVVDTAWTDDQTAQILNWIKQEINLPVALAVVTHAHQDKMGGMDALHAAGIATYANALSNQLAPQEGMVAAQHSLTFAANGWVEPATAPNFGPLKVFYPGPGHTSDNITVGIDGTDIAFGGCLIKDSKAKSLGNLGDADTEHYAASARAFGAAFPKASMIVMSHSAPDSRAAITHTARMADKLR
purified class A, C and D enzymes (Enterobacter cloacae, UniProt P05364), sequence (P05364 21-381): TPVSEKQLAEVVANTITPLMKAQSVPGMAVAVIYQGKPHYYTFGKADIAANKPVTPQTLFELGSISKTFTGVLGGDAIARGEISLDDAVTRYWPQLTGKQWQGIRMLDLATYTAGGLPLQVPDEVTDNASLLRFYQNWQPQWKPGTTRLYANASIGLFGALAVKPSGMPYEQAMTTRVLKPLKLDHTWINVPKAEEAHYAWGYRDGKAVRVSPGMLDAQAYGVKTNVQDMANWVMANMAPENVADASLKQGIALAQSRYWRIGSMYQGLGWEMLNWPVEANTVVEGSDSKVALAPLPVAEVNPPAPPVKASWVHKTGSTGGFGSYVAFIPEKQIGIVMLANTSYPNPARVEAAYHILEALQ

For the compound `CSCCOc1ccc2c(c1C(=O)O)OB(O)[C@@H](Sc1nncs1)C2` [Compound 95, (3R)-2-hydroxy-7-(2-methylsulfanylethoxy)-3-(1,3,4-thiadiazol-2-ylsulfanyl)-3,4-dihydro-1,2-benzoxaborinine-8-carboxylic acid], the Ki at NDM-1 [1] (setting [8]) is 10 to 100 nM; at NDM-1 [2] it was 10 to 100 nM; in assay [5], less than 100 nM; in assay [6], 100 to 1000 nM. On VIM-1, this compound showed an IC50 of less than 1000 nM. For the same compound, the “Ki (P99/AmpC of ECL, NCF)” value in assay [3] is “Y (0.1 μM to 1 μM)”. In addition, the “Ki (CTX-M-14, NCF)” value in assay [4] was “X (Less than 0.1 μM)”.

Regarding `O=C(O)c1c(OCc2nncs2)ccc2c1OB(O)[C@@H](Sc1nncs1)C2` [Compound 93], the Ki at NDM-1 [1] (setting [8]) was greater than 100 nM; on NDM-1 [2] it was greater than 100 nM; in assay [5], less than 100 nM; in assay [6] it was 100 to 1000 nM. Besides, the IC50 on VIM-1 is less than 1000 nM. Also, the “Ki (P99/AmpC of ECL, NCF)” value in assay [3] is reported as “Y (0.1 μM to 1 μM)”. Moreover, in assay [4], the “Ki (CTX-M-14, NCF)” value is “X (Less than 0.1 μM)”.

With `CSc1ccc2c(c1C(=O)O)OB(O)[C@@H](Sc1nncn1N)C2` [Compound 25, (R)-3-(4-amino-4H-1,2,4-triazol-3-ylthio)-2-hydroxy-7-(methylthio)-3,4-dihydro-2H-benzo[e][1,2]oxaborinine-8-carboxylic acid], the inhibitory constant (Ki) was less than 10 nM at NDM-1 [1] (setting [8]); less than 10 nM at NDM-1 [2]; less than 100 nM in assay [7]; less than 100 nM in assay [5]; 100 to 1000 nM in assay [6]. Also, on VIM-1, the IC50 is less than 1000 nM.

Regarding `CS(=O)(=O)Nc1ccc2c(c1C(=O)O)OB(O)[C@@H](Sc1nnc(N)s1)C2` [Compound 120, (3R)-3-[(5-amino-1,3,4-thiadiazol-2-yl)sulfanyl]-2-hydroxy-7-(methanesulfonamido)-3,4-dihydro-1,2-benzoxaborinine-8-carboxylic acid], the Ki is less than 10 nM on NDM-1 [1] (setting [8]), less than 10 nM on NDM-1 [2], less than 100 nM in assay [5] and 100 to 1000 nM in assay [6]. Besides, the IC50 on VIM-1 was less than 1000 nM. Further, the “Ki (P99/AmpC of ECL, NCF)” value in assay [3] is reported as “X (Less than 0.1 μM)”. Besides, the “Ki (CTX-M-14, NCF)” value in assay [4] is on record as “X (Less than 0.1 μM)”.

Turning to `CO[C@H]1Cc2ccc(F)c(C(=O)O)c2OB1O` [Compound 19, (R)-7-fluoro-2-hydroxy-3-methoxy-3,4-dihydro-2H-benzo[e][1,2]oxaborinine-8-carboxylic acid], the Ki at NDM-1 [1] (setting [8]) is less than 10 nM; in assay [7] it was less than 100 nM; in assay [5], less than 100 nM; in assay [6], less than 100 nM. At VIM-1, this compound registered a 50% inhibitory concentration (IC50) of less than 1000 nM.

As to `Cn1cnnc1S[C@H]1Cc2ccc(F)c(C(=O)O)c2OB1O` [Compound 24, (R)-7-fluoro-2-hydroxy-3-(4-methyl-4H-1,2,4-triazol-3-ylthio)-3,4-dihydro-2H-benzo[e][1,2]oxaborinine-8-carboxylic acid], the Ki at NDM-1 [1] (setting [8]) was 10 to 100 nM; on NDM-1 [2], 10 to 100 nM; in assay [7], less than 100 nM; in assay [5], less than 100 nM; in assay [6], 100 to 1000 nM. Moreover, the IC50 against VIM-1 was no less than 1000 nM.

`O=C(O)c1cccc2c1OB(O)[C@@H](Sc1ccccc1)C2` [Compound 6, (R)-2-hydroxy-3-(phenylthio)-3,4-dihydro-2H-benzo[e][1,2]oxaborinine-8-carboxylic acid]: the inhibitory constant (Ki) at NDM-1 [1] (setting [8]) and at NDM-1 [2] was less than 10 nM throughout. Also, the IC50 against VIM-1 was less than 1000 nM.

Take `COc1ccc2c(c1C(=O)O)OB(O)[C@@H](Sc1nnc(NC(=N)N)s1)C2` [Compound 106, (3R)-3-[(5-guanidino-1,3,4-thiadiazol-2-yl)sulfanyl]-2-hydroxy-7-methoxy-3,4-dihydro-1,2-benzoxaborinine-8-carboxylic acid]: the Ki on NDM-1 [1] (setting [8]) is greater than 100 nM; at NDM-1 [2], greater than 100 nM; in assay [5] it was less than 100 nM; in assay [6], 100 to 1000 nM. The compound also came in with an IC50 on VIM-1 of less than 1000 nM. In addition, the “Ki (P99/AmpC of ECL, NCF)” value in assay [3] was “X (Less than 0.1 μM)”. In addition, the “Ki (CTX-M-14, NCF)” value in assay [4] is listed as “X (Less than 0.1 μM)”.

As to `O=C(O)c1cccc2c1OB(O)[C@@H](OCc1ccccc1)C2` [Compound 13, (R)-3-(benzyloxy)-2-hydroxy-3,4-dihydro-2H-benzo[e][1,2]oxaborinine-8-carboxylic acid], the Ki on NDM-1 [1] (setting [8]) and at NDM-1 [2] was 10 to 100 nM in each case. This compound displayed an IC50 against VIM-1 of less than 1000 nM.

For the compound `Nn1cnnc1S[C@H]1Cc2ccc(F)c(C(=O)O)c2OB1O` [Compound 20, (R)-3-(4-amino-4H-1,2,4-triazol-3-ylthio)-7-fluoro-2-hydroxy-3,4-dihydro-2H-benzo[e][1,2]oxaborinine-8-carboxylic acid], the Ki is less than 10 nM at NDM-1 [1] (setting [8]); less than 10 nM at NDM-1 [2]; less than 100 nM in assay [7]; 100 to 1000 nM in assay [5]; 100 to 1000 nM in assay [6]. Also, the 50% inhibitory concentration (IC50) against VIM-1 was no less than 1000 nM.

As to `O=C(O)c1c(OCC2CC2)ccc2c1OB(O)[C@@H](Sc1nncs1)C2` [Compound 92, (3R)-7-(cyclopropylmethoxy)-2-hydroxy-3-(1,3,4-thiadiazol-2-ylsulfanyl)-3,4-dihydro-1,2-benzoxaborinine-8-carboxylic acid], the Ki was 10 to 100 nM at NDM-1 [1] (setting [8]), 10 to 100 nM at NDM-1 [2], less than 100 nM in assay [5] and 100 to 1000 nM in assay [6]. At VIM-1, this compound had an IC50 of less than 1000 nM. Also, the “Ki (P99/AmpC of ECL, NCF)” value in assay [3] is listed as “Y (0.1 μM to 1 μM)”. Also, in assay [4], the “Ki (CTX-M-14, NCF)” value is on record as “X (Less than 0.1 μM)”.

Regarding `Cn1nnnc1S[C@H]1Cc2cccc(C(=O)O)c2OB1O` [Compound 5, (R)-2-hydroxy-3-(1-methyl-1H-tetrazol-5-ylthio)-3,4-dihydro-2H-benzo[e][1,2]oxaborinine-8-carboxylic acid], the inhibitory constant (Ki) on NDM-1 [1] (setting [8]) and on NDM-1 [2] was 10 to 100 nM in each case. The IC50 at VIM-1 was no less than 1000 nM.

For the compound `CO[C@H]1Cc2cccc(C(=O)O)c2OB1O` [Compound 17, (R)-2-hydroxy-3-methoxy-3,4-dihydro-2H-benzo[e][1,2]oxaborinine-8-carboxylic acid], the Ki at NDM-1 [1] (cleavage of biapenem (100 uM) by NDM-1, read-out: Ki, Biapenem) is 10 to 100 nM; at NDM-1 [1] (setting [8]), 10 to 100 nM; on NDM-1 [1] (cleavage of meropenem (100 uM) by NDM-1, read-out: Ki, Meropenem), 10 to 100 nM; on NDM-1 [2], 10 to 100 nM; in assay [7] it was less than 100 nM; in assay [5] it was less than 100 nM. The inhibitory constant (Ki) in assay [6] is less than 100 nM. This compound gave an IC50 at VIM-1 of less than 1000 nM.

`CC(=N)S[C@H]1Cc2cccc(C(=O)O)c2OB1O` [Compound 10, (R)-2-hydroxy-3-(1-iminoethylthio)-3,4-dihydro-2H-benzo[e][1,2]oxaborinine-8-carboxylic acid]: the inhibition constant (Ki) on NDM-1 [1] (setting [8]) fell in the range of 10 to 100 nM; on NDM-1 [2], 10 to 100 nM; in assay [6], 100 to 1000 nM. At VIM-1, this compound returned an IC50 of no less than 1000 nM.

Turning to `O=C(O)c1cccc2c1OB(O)[C@@H](Sc1c[nH]nn1)C2` [Compound 12, (R)-3-(1H-1,2,3-triazol-4-ylthio)-2-hydroxy-3,4-dihydro-2H-benzo[e][1,2]oxaborinine-8-carboxylic acid], the Ki at NDM-1 [1] (setting [8]) is 10 to 100 nM; at NDM-1 [2], 10 to 100 nM; in assay [6] it was 100 to 1000 nM. The same compound yielded a half-maximal inhibitory concentration (IC50) against VIM-1 of less than 1000 nM.

With `O=C(O)c1cccc2c1OB(O)[C@@H](Sc1cccnc1)C2` [Compound 8, (R)-2-hydroxy-3-(pyridin-3-ylthio)-3,4-dihydro-2H-benzo[e][1,2]oxaborinine-8-carboxylic acid], the Ki at NDM-1 [1] (setting [8]) and on NDM-1 [2] was greater than 100 nM throughout. On VIM-1, this compound returned an IC50 of less than 1000 nM.
